# Where two headings read alike, the source gives them in different places. Marks after values point to notes of the source that are not given here.
# Tests used:
# rats [1] = settings: rat, in vivo; cited from earlier work
# [2] = target: rat Nav1.6 sodium channels (Rattus norvegicus, UniProt O88420); type: cell-based; settings: for Steady-state inactivation K (slope factor) / Activation K (slope factor) / Activation V0.5 (midpoint potential) / Steady-state inactivation V0.5 (midpoint potential) / Tail current decay time constant, fast component (τ1) / Peak current inactivation time constant, fast component (τfast) / Peak current inactivation time constant, slow component (τslow): pyrethroid 100 μM; for Steady-state inactivation K (slope factor) / Activation K (slope factor) / Activation V0.5 (midpoint potential) / Steady-state inactivation V0.5 (midpoint potential): Boltzmann fit; for Steady-state inactivation K (slope factor): control 7.02 ± 0.13; for Activation K (slope factor): control 8.02 ± 0.23; for Activation V0.5 (midpoint potential): control −17.0 ± 0.4; for Steady-state inactivation V0.5 (midpoint potential): control −50.3 ± 0.3; for Tail current decay time constant, fast component (τ1) / Peak current inactivation time constant, fast component (τfast) / Peak current inactivation time constant, slow component (τslow): mean ± SE; for Peak current inactivation time constant, fast component (τfast): control 1.32 ± 0.03; for Peak current inactivation time constant, slow component (τslow): control 10.93 ± 2.25; for Effect of repetitive depolarization on modification (words): trains of high-frequency depolarizing prepulses
# [3] = target: rat Nav1.2 sodium channels (Rattus norvegicus, UniProt P04775, N209D); type: cell-based
# rats [4] = test: Acute oral toxicity to rats; type: in vivo, rat; settings: ref Soderlund et al., 2002
# [5] = 0 prepulses, Hill fit, mean ± SE of 5
# [6] = 100 prepulses, Hill fit, mean ± SE of 5
# [7] = EC10 0 prepulses vs 100 prepulses
# rat Nav1.6 sodium channels, sequence (O88420 whole entry): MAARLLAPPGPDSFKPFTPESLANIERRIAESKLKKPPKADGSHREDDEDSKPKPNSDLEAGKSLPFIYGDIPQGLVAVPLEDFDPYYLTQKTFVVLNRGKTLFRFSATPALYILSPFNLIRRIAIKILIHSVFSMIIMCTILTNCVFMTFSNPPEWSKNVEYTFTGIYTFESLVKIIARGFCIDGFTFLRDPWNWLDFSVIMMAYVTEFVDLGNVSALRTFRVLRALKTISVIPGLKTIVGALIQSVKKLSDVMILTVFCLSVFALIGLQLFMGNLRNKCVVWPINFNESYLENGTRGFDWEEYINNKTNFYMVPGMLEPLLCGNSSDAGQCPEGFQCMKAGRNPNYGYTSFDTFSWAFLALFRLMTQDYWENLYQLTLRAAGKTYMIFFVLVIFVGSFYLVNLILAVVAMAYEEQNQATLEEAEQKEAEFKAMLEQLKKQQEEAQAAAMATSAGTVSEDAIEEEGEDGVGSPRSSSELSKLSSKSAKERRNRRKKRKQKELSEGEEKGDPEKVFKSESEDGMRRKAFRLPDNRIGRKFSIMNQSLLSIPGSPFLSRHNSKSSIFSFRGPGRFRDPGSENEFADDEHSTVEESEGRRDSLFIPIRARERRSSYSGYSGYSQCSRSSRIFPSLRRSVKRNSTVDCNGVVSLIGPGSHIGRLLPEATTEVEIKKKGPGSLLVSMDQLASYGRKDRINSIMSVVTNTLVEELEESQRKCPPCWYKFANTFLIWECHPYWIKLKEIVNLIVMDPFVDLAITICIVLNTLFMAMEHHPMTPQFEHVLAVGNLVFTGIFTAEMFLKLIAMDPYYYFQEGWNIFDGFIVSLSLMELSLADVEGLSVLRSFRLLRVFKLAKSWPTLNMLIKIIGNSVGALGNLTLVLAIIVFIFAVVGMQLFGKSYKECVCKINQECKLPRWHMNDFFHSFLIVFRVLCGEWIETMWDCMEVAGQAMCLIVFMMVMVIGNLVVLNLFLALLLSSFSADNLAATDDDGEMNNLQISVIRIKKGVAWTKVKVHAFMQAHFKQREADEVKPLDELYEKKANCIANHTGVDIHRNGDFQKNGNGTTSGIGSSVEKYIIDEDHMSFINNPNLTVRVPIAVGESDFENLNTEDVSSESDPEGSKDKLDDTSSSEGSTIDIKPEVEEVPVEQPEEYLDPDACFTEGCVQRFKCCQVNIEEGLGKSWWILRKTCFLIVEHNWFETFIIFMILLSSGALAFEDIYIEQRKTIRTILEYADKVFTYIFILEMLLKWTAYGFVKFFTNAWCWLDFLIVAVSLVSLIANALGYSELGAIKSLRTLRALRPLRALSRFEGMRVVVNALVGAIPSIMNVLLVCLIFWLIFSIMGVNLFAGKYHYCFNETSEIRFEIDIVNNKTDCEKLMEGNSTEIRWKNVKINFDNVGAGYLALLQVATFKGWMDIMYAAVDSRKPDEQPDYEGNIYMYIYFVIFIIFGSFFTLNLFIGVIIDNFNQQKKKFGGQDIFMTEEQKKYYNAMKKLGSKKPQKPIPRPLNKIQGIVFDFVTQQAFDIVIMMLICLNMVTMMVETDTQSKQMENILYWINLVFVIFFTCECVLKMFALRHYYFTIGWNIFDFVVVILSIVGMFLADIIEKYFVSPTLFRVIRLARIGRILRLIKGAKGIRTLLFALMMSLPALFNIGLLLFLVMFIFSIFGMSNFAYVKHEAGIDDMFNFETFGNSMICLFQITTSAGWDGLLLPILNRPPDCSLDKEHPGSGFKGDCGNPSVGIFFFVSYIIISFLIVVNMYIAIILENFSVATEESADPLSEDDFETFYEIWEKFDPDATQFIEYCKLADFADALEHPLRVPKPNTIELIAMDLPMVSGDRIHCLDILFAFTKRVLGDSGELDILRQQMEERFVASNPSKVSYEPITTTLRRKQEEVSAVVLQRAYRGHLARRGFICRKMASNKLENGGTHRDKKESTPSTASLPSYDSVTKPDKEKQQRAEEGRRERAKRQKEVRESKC
# rat Nav1.6 sodium channels, sequence (Q00954 19-218 partner): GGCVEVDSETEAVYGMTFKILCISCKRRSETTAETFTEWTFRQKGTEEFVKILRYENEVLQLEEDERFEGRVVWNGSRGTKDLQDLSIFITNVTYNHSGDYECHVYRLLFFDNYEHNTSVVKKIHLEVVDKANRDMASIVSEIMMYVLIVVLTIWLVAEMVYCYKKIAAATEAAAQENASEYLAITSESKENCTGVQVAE
# rat Nav1.6 sodium channels, sequence (P54900 30-215 partner): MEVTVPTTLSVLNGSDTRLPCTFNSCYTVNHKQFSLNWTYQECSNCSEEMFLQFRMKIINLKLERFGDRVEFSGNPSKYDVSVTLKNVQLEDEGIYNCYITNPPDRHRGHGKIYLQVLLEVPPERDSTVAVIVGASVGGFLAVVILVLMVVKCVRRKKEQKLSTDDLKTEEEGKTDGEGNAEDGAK
# rat Nav1.2 sodium channels, sequence (P04775 whole entry N209D): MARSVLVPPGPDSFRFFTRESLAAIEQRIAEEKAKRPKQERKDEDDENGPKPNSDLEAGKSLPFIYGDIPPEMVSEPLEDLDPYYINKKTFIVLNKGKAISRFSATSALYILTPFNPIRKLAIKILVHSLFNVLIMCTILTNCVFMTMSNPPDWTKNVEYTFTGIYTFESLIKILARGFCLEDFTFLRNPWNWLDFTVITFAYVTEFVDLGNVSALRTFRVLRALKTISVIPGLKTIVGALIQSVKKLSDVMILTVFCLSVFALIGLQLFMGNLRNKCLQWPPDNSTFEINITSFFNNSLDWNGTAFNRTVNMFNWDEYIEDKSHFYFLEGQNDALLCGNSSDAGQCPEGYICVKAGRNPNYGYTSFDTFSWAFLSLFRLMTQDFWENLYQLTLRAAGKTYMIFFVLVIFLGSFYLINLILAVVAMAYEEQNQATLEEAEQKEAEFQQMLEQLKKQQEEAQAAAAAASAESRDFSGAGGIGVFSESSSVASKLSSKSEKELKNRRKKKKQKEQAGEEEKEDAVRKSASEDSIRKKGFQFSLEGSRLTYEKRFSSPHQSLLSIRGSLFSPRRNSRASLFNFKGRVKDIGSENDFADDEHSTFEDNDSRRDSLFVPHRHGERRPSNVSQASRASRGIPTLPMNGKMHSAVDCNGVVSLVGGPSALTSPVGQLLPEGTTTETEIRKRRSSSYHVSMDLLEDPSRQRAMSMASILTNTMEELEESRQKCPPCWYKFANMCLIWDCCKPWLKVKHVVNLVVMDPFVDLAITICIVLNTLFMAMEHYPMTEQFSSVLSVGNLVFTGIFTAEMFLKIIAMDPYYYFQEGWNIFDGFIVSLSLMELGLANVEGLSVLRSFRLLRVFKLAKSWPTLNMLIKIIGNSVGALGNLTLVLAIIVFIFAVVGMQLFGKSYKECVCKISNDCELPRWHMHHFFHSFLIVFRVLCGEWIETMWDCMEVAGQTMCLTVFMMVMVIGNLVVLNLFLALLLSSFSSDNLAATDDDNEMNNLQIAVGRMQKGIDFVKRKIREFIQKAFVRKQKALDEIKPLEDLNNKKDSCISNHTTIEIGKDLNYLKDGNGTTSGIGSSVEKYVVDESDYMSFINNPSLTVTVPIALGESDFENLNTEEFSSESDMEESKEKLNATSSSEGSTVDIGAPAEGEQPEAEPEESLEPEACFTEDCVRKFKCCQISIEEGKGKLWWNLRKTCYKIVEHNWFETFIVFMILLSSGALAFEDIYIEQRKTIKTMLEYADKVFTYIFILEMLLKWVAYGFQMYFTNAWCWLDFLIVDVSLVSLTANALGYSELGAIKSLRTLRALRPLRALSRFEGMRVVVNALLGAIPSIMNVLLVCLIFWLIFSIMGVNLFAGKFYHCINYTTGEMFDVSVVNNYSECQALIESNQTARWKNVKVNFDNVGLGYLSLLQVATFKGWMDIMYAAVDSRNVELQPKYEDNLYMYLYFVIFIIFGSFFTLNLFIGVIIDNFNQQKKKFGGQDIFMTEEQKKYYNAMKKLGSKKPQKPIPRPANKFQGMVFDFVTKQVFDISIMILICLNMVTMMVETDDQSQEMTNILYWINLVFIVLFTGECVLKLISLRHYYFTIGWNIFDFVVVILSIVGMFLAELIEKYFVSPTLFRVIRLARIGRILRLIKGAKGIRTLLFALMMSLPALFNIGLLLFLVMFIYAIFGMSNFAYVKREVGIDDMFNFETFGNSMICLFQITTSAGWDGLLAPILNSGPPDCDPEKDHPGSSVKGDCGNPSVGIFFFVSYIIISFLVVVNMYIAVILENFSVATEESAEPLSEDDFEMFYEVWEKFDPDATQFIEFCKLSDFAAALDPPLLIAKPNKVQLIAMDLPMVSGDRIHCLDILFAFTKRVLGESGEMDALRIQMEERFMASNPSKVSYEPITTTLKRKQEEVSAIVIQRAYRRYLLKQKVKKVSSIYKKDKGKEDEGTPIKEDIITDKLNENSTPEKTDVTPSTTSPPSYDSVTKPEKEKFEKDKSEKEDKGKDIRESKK
# rat Nav1.2 sodium channels, sequence (Q00954 19-218 partner): as the sequence (Q00954 19-218 partner) above
# rat Nav1.2 sodium channels, sequence (P54900 30-215 partner): as the sequence (P54900 30-215 partner) above
compound,measurement,setting,value
CC1(C)[C@H](C(=O)O[C@H](C#N)c2cccc(Oc3ccccc3)c2)[C@@H]1C=C(Br)Br [deltamethrin],Acute oral LD50,rats [1],95 mg/kg
Cc1c(F)c(F)c(COC(=O)[C@@H]2[C@H](/C=C(\Cl)C(F)(F)F)C2(C)C)c(F)c1F (racemic) [tefluthrin],"EC10, resting modification",[2]; [5],14.1 ± 3.7 µM
same,"Prepulse number up to which extent of modification increased, then stable",[2]; 100 μM,80 prepulses
same,Tail current τ1 relative to S-bioallethrin-induced currents,[2]; 100 μM,approximately 4 fold
same,Increase of extent of channel modification by repetitive depolarization,"[2]; 100 μM, 100 prepulses vs 0 prepulses",2.8 fold
same,Potency relative to deltamethrin as use-dependent modifier (EC10),[2]; 100 prepulses,~ 10 fold
same,"EC10, use-dependent modification",[2]; [6],0.95 ± 0.22 µM
same,Increase of sensitivity (EC10) to the compound by repetitive depolarization,[2]; [7],~ 15 fold
same,Sensitivity of Nav1.6 isoform relative to Nav1.2 isoform (concentration–effect data),"[2]; abstract summary, state not specified",at least 15 fold
same,Steady-state inactivation K (slope factor),[2],6.03 ± 0.10 ^b
same,Activation K (slope factor),[2],8.06 ± 0.21
same,Activation V0.5 (midpoint potential),[2],−17.0 ± 1.0 mV
same,Steady-state inactivation V0.5 (midpoint potential),[2],−52.3 ± 1.2 mV
same,"Tail current decay time constant, fast component (τ1)",[2],9.8 ± 0.6 ms
same,"Peak current inactivation time constant, fast component (τfast)",[2],1.12 ± 0.04 ^d ms
same,"Peak current inactivation time constant, slow component (τslow)",[2],19.00 ± 0.64 ^d ms
same,"EC10, resting modification",[3]; [5],222 ± 82 µM
same,"EC10, use-dependent modification",[3]; [6],16.9 ± 5.5 µM
same,Increase of sensitivity (EC10) to the compound by repetitive depolarization,[3]; [7],approximately 13 fold
same,Acute oral LD50 lower than that of deltamethrin,rats [4],approximately 5 fold
C=CCC1=C(C)[C@@H](OC(=O)[C@@H]2[C@@H](C=C(C)C)C2(C)C)CC1=O [S-bioallethrin],Increase of inactivation-resistant current relative to control,"[2]; 100 μM, prepulses above 0 mV, control approximately 2% of total current",approximately five-fold
same,Effect of repetitive depolarization on modification (words),[2]; 100 μM,decreased slightly
same,Effect of repetitive depolarization on modification (words),"[2]; 100 μM, listed as S-Bioallethrin",no further enhancement of modification
same,Steady-state inactivation K (slope factor),[2],6.24 ± 0.23
same,Activation K (slope factor),[2],7.78 ± 0.52
same,Activation V0.5 (midpoint potential),[2],−19.2 ± 1.1 mV
same,Steady-state inactivation V0.5 (midpoint potential),[2],−52.8 ± 1.1 mV
same,"Tail current decay time constant, fast component (τ1)",[2],2.3 ± 0.4 ms
same,"Peak current inactivation time constant, fast component (τfast)",[2],2.11 ± 0.12 ^d ms
same,"Peak current inactivation time constant, slow component (τslow)",[2],7.30 ± 0.35 ^d ms

# Reference: article PMC2929565 (Toxicology and applied pharmacology, 2010)
